From patent US20220213047A1, “CARBONIC ANHYDRASE INHIBITORS FOR TREATMENT OF NEISSERIA GONORRHOEAE INFECTION” (Purdue Research Foundation, priority 2021, published 2022)
Converted amounts (≈) assume the structure as drawn.

Tests used:
N. gonorrhoeae [1] = assay: MIC against N. gonorrhoeae clinical isolates, normal and CO2 conditions; type: cell-based; conditions: Neisseria gonorrhoeae
Protocol: (§1) These tests were performed in normal culture conditions with standard CO2 levels and in CO2 (5% in incubator) conditions.

ATCC strain 700825 = assay: MICs against ATCC strain 700825; type: cell-based, N. gonorrhoeae; conditions: Neisseria gonorrhoeae
Protocol: as §1

N. gonorrhoeae [2] = assay: Post-antibiotic effect (PAE); type: cell-based; conditions: after exposure to 10×MIC for 1 hour
N. gonorrhoeae [3] = assay: Multi-step resistance selection; type: cell-based; conditions: after 9 passages
Excerpt: Frequency of mutation—multi-step mutation—We investigated N. gonorrhoeae's ability to develop resistance to CAIs using the multi-step resistance selection experiment^58.
N. gonorrhoeae cultures that grew at the highest concentrations of the compound are used as an inoculum for the subsequent culture.

[4] = N. gonorrhoeae 178, Non CO2 environment
[5] = N. gonorrhoeae 178, normal growth environment (with CO2)
[6] = N. gonorrhoeae 181, Non CO2 environment
[7] = N. gonorrhoeae 181, normal growth environment (with CO2)
[8] = N. gonorrhoeae 194, Non CO2 environment
[9] = N. gonorrhoeae 194, normal growth environment (with CO2)

MIC (ATCC strain 700825; ATCC700825, In CO2) [µg/mL]	MIC (ATCC strain 700825; ATCC700825, In air) [µg/mL]	Structure (SMILES)	MIC (N. gonorrhoeae [1]; [4]) [µg/mL]	MIC (N. gonorrhoeae [1]; [5]) [µg/mL]	MIC (N. gonorrhoeae [1]; [6]) [µg/mL]	MIC (N. gonorrhoeae [1]; [7]) [µg/mL]	MIC (N. gonorrhoeae [1]; [8]) [µg/mL]	MIC (N. gonorrhoeae [1]; [9]) [µg/mL]	PAE (N. gonorrhoeae [2]; Ng 181) [h]	PAE (N. gonorrhoeae [2]; Ng 186) [h]	PAE (N. gonorrhoeae [2]; Ng 194) [h]	PAE (N. gonorrhoeae [2]; Ng 198) [h]	PAE (N. gonorrhoeae [2]; clinical isolates of N. gonorrhoeae) [h]	increase in MIC (N. gonorrhoeae [3]) [fold]
–	–	CN1CCN(CC(=O)Nc2nnc(S(N)(=O)=O)s2)CC1 [CAI 0036]	64 (≈ 200 µM)	> 64	> 64	> 64	> 64	> 64	–	–	–	–	–	–
–	–	NS(=O)(=O)c1nnc(NC(=O)c2cccc(C(F)(F)F)c2)s1 [CAI 0038]	1 (≈ 2.84 µM)	> 64	4 (≈ 11.4 µM)	64 (≈ 182 µM)	2 (≈ 5.68 µM)	> 64	–	–	–	–	–	–
–	–	CC(C)C(=O)Nc1nnc(S(N)(=O)=O)s1 [CAI 0011]	16 (≈ 63.9 µM)	32 (≈ 128 µM)	16 (≈ 63.9 µM)	> 64	8 (≈ 32 µM)	64 (≈ 256 µM)	–	–	–	–	–	–
32 (≈ 100 µM)	4 (≈ 12.6 µM)	NS(=O)(=O)c1nnc(NC(=O)CCC2CCCCC2)s1 [CAI 0019]	4 (≈ 12.6 µM)	64 (≈ 201 µM)	1 (≈ 3.14 µM)	64 (≈ 201 µM)	2 (≈ 6.28 µM)	> 64	–	–	–	–	–	–
–	–	CC[C@H]1OC(=O)[C@H](C)[C@@H](O[C@H]2C[C@@](C)(OC)[C@@H](O)[C@H](C)O2)[C@H](C)[C@@H](O[C@@H]2O[C@H](C)C[C@H](N(C)C)[C@H]2O)[C@](C)(O)C[C@@H](C)CN(C)[C@H](C)[C@@H](O)[C@]1(C)O [Azithromycin]	0.25 (≈ 0.334 µM)	1 (≈ 1.34 µM)	> 128	> 128	0.25 (≈ 0.334 µM)	0.5 (≈ 0.668 µM)	8	8	8	8	8	–
–	–	CC(C)(C)CC(=O)Nc1nnc(S(N)(=O)=O)s1 [CAI 0028]	8 (≈ 28.7 µM)	32 (≈ 115 µM)	16 (≈ 57.5 µM)	64 (≈ 230 µM)	32 (≈ 115 µM)	64 (≈ 230 µM)	–	–	–	–	–	–
–	–	NS(=O)(=O)c1nnc(NC(=O)CN2CCCC2)s1 [CAI 0037]	> 64	> 64	> 64	> 64	> 64	> 64	–	–	–	–	–	–
–	–	NS(=O)(=O)c1nnc(NC(=O)CCC2CCCC2)s1 [CAI 0015]	2 (≈ 6.57 µM)	16 (≈ 52.6 µM)	1 (≈ 3.29 µM)	> 64	4 (≈ 13.1 µM)	64 (≈ 210 µM)	–	–	–	–	–	–
–	–	CCCC(=O)Nc1nnc(S(N)(=O)=O)s1 [CAI 0013]	–	8 (≈ 32 µM)	8 (≈ 32 µM)	32 (≈ 128 µM)	4 (≈ 16 µM)	8 (≈ 32 µM)	–	–	–	–	–	–
–	–	Nc1nnc(S(N)(=O)=O)s1 [CAI 0034]	1 (≈ 5.55 µM)	> 64	4 (≈ 22.2 µM)	> 64	2 (≈ 11.1 µM)	> 64	–	–	–	–	–	–
–	–	CC(=O)Nc1ccc(S(N)(=O)=O)cc1 [CAI 0030]	8 (≈ 37.3 µM)	> 64	32 (≈ 149 µM)	> 64	16 (≈ 74.7 µM)	> 64	–	–	–	–	–	–
–	–	CCN[C@H]1C[C@H](C)S(=O)(=O)c2sc(S(N)(=O)=O)cc21 [Dorzolamide]	32 (≈ 98.6 µM)	> 64	> 64	> 64	> 64	> 64	–	–	–	–	–	–
–	–	CCC(=O)Nc1nnc(S(N)(=O)=O)s1 [CAI 009]	8 (≈ 33.9 µM)	16 (≈ 67.7 µM)	8 (≈ 33.9 µM)	> 64	16 (≈ 67.7 µM)	64 (≈ 271 µM)	–	–	–	–	–	–
–	–	O=C(O)c1cn(C2CC2)c2cc(N3CCNCC3)c(F)cc2c1=O [Ciprofloxacin]	–	–	–	–	–	–	–	–	–	–	–	300
–	–	NS(=O)(=O)c1nnc(NC(=O)C2CCCCC2)s1 [CAI 0022]	4 (≈ 13.8 µM)	32 (≈ 110 µM)	2 (≈ 6.89 µM)	64 (≈ 220 µM)	4 (≈ 13.8 µM)	> 64	–	–	–	–	–	–
–	–	NS(=O)(=O)c1nnc(NC(=O)C2CCC2)s1 [CAI 0018]	16 (≈ 61 µM)	64 (≈ 244 µM)	16 (≈ 61 µM)	> 64	8 (≈ 30.5 µM)	32 (≈ 122 µM)	–	–	–	–	–	–
